Earlier results in PMC9138994 (Biomolecules, 2022).
Marks after values point to notes of the source that are not given here.

Key:
H3R = tested on: H3R; parameters: method as in earlier work; conditions: ref 19 (Vanover et al.); cited from earlier work
D1R = tested on: D1R; parameters: method as in earlier work; conditions: ref 19 (Vanover et al.); cited from earlier work

For `CC(C)COc1ccc(CNC(=O)N(Cc2ccc(F)cc2)C2CCN(C)CC2)cc1` [Pimavanserin, reference compound], the “inhibition at 10 µM, H3R” value (H3R) is listed as “inhibition at 10 µM: <50% ^a” and the “inhibition at 10 µM, D1R” value (D1R) is listed as “inhibition at 10 µM: <50% ^a”.
